Drawing on patent US20240252506A1 (Hoffmann-La Roche Inc., priority 2021, published 2024), this text covers MIC for 20 molecules.

Structures are written as SMILES. Converted amounts (≈) assume the structure as drawn.

For the experiment, the system named is Escherichia coli ATCC 25922. The experiment in a line: Minimal Inhibitory Concentration (MIC) determination, broth microdilution (CLSI M07-A10). The class given is cell-based. As to conditions: Escherichia coli, ATCC25922, strain Escherichia coli ATCC 25922, 18-24 hours at 35±2° C., lowest concentration for complete growth inhibition (no visible growth), read-out: Escherichia coli growth inhibition MIC. Summed up:
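MIC read visually as the lowest concentration with complete growth inhibition after 18-24 h at 35±2° C, ambient air. Method follows CLSI M07-A10 broth microdilution, two-fold compound series, inoculum standardized to 0.5 McFarland then diluted 1:200.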
Regarding `CN(C)Cc1nc2c(F)c3c(c(F)c2[nH]1)CC(CNCCC1CN(c2cnc4c(n2)NC(=O)CO4)C(=O)O1)C3` (centres unmarked) [Example 2, 6-[5-[2-[[2-[(dimethylamino)methyl]-4,8-difluoro-3,5,6,7-tetrahydrocyclopenta[f]benzimidazol-6-yl]methylamino]ethyl]-2-oxo-oxazolidin-3-yl]-4H-pyrazino[2,3-b][1,4]oxazin-3-one], the MIC (usually the lowest concentration that inhibits growth of the organism) turned out to be 0.5 µg/mL (≈ 0.922 µM).

`CN(C)Cc1nc2c(F)c3c(c(F)c2[nH]1)CC(CN1CCC2(CC1)CN(c1cnc4c(n1)NC(=O)CO4)C(=O)O2)C3` [Example 3, 6-[8-[[2-[(dimethylamino)methyl]-4,8-difluoro-3,5,6,7-tetrahydrocyclopenta[f]benzimidazol-6-yl]methyl]-2-oxo-1-oxa-3,8-diazaspiro[4.5]decan-3-yl]-4H-pyrazino[2,3-b][1,4]oxazin-3-one]: the MIC came to 0.25 µg/mL (≈ 0.44 µM).

With `CC(C)(O)c1nc2c(F)c3c(c(F)c2[nH]1)CC(CN1CCC2(CC1)CN(c1cnc4c(n1)NC(=O)CO4)C(=O)O2)C3` [Example 4, 6-[8-[[4,8-difluoro-2-(1-hydroxy-1-methyl-ethyl)-3,5,6,7-tetrahydrocyclopenta[f]benzimidazol-6-yl]methyl]-2-oxo-1-oxa-3,8-diazaspiro[4.5]decan-3-yl]-4H-pyrazino[2,3-b][1,4]oxazin-3-one], the MIC is 0.5 µg/mL (≈ 0.878 µM). As for `O=C1COc2ncc(N3CC4(CCN(CC5Cc6c(c(F)c7[nH]c(CN8CCS(=O)(=O)CC8)nc7c6F)C5)CC4)OC3=O)nc2N1` [Example 5, 6-[8-[[2-[(1,1-dioxo-1,4-thiazinan-4-yl)methyl]-4,8-difluoro-3,5,6,7-tetrahydrocyclopenta[f]benzimidazol-6-yl]methyl]-2-oxo-1-oxa-3,8-diazaspiro[4.5]decan-3-yl]-4H-pyrazino[2,3-b][1,4]oxazin-3-one], the MIC came to 2 µg/mL (≈ 3.04 µM). Consider `CN1CCOC(c2nc3c(F)c4c(c(F)c3[nH]2)CC(CN2CCC3(CC2)CN(c2cnc5c(n2)NC(=O)CO5)C(=O)O3)C4)C1` (centres unmarked) [Example 6, 6-[8-[[4,8-difluoro-2-(4-methylmorpholin-2-yl)-3,5,6,7-tetrahydrocyclopenta[f]benzimidazol-6-yl]methyl]-2-oxo-1-oxa-3,8-diazaspiro[4.5]decan-3-yl]-4H-pyrazino[2,3-b][1,4]oxazin-3-one], for which the MIC turned out to be 1 µg/mL (≈ 1.64 µM). Turning to `CN(C)CCc1nc2c(F)c3c(c(F)c2[nH]1)CC(CN1CCC2(CC1)CN(c1cnc4c(n1)NC(=O)CO4)C(=O)O2)C3` [Example 7, 6-[8-[[2-[2-(dimethylamino)ethyl]-4,8-difluoro-3,5,6,7-tetrahydrocyclopenta[f]benzimidazol-6-yl]methyl]-2-oxo-1-oxa-3,8-diazaspiro[4.5]decan-3-yl]-4H-pyrazino[2,3-b][1,4]oxazin-3-one], the MIC came out at 0.125 µg/mL (≈ 0.215 µM).

`O=C1COc2ncc(N3CC4(CCN(CC5Cc6c(c(F)c7[nH]c(CN8CCOCC8)nc7c6F)C5)CC4)OC3=O)nc2N1` [Example 8, 6-[8-[[4,8-difluoro-2-(morpholinomethyl)-3,5,6,7-tetrahydrocyclopenta[f]benzimidazol-6-yl]methyl]-2-oxo-1-oxa-3,8-diazaspiro[4.5]decan-3-yl]-4H-pyrazino[2,3-b][1,4]oxazin-3-one]: the MIC stood at 1 µg/mL (≈ 1.64 µM). Then `CNCc1nc2c(F)c3c(c(F)c2[nH]1)CC(CN1CCC2(CC1)CN(c1cnc4c(n1)NC(=O)CO4)C(=O)O2)C3` [Example 9, 6-[8-[[4,8-Difluoro-2-(methylaminomethyl)-3,5,6,7-tetrahydrocyclopenta[f]benzimidazol-6-yl]methyl]-2-oxo-1-oxa-3,8-diazaspiro[4.5]decan-3-yl]-4H-pyrazino[2,3-b][1,4]oxazin-3-one], with 0.125 µg/mL (≈ 0.225 µM); and `NCc1nc2c(F)c3c(c(F)c2[nH]1)CC(CN1CCC2(CC1)CN(c1cnc4c(n1)NC(=O)CO4)C(=O)O2)C3.O=C(O)C(F)(F)F` [Example 10, 6-[8-[[2-(aminomethyl)-4,8-difluoro-3,5,6,7-tetrahydrocyclopenta[f]benzimidazol-6-yl]methyl]-2-oxo-1-oxa-3,8-diazaspiro[4.5]decan-3-yl]-4H-pyrazino[2,3-b][1,4]oxazin-3-one; 2,2,2-trifluoroacetic acid], with 0.125 µg/mL; and `O=C(O)C(F)(F)F.O=C1COc2ncc(N3CC4(CCN(CC5Cc6c(c(F)c7[nH]c([C@@H]8CCCN8)nc7c6F)C5)CC4)OC3=O)nc2N1` [Example 11, 6-[8-[[4,8-difluoro-2-[(2S)-pyrrolidin-2-yl]-3,5,6,7-tetrahydrocyclopenta[f]benzimidazol-6-yl]methyl]-2-oxo-1-oxa-3,8-diazaspiro[4.5]decan-3-yl]-4H-pyrazino[2,3-b][1,4]oxazin-3-one; 2,2,2-trifluoroacetic acid], with 0.125 µg/mL. The result for `CNCc1nc2c(F)c3c(cc2[nH]1)CC(CN1CCC2(CC1)CN(c1cnc4c(n1)NC(=O)CO4)C(=O)O2)C3.O=C(O)C(F)(F)F` (centres unmarked) [Example 12, 6-[8-[[8-fluoro-2-(methylaminomethyl)-1,5,6,7-tetrahydrocyclopenta[f]benzimidazol-6-yl]methyl]-2-oxo-1-oxa-3,8-diazaspiro[4.5]decan-3-yl]-4H-pyrazino[2,3-b][1,4]oxazin-3-one; 2,2,2-trifluoroacetic acid] reads 0.125 µg/mL. As to `CNCCc1nc2c(F)c3c(c(F)c2[nH]1)CC(CN1CCC2(CC1)CN(c1cnc4c(n1)NC(=O)CO4)C(=O)O2)C3.O=C(O)C(F)(F)F` [Example 13, 6-[8-[[4,8-difluoro-2-[2-(methylamino)ethyl]-3,5,6,7-tetrahydrocyclopenta[f]benzimidazol-6-yl]methyl]-2-oxo-1-oxa-3,8-diazaspiro[4.5]decan-3-yl]-4H-pyrazino[2,3-b][1,4]oxazin-3-one; 2,2,2-trifluoroacetic acid], the MIC is 0.25 µg/mL.

`O=C(O)C(F)(F)F.O=C1COc2ccc(N3CC4(CCN(CC5Cc6c(c(F)c7[nH]c([C@H]8CCNC8)nc7c6F)C5)CC4)OC3=O)nc2N1` [Example 15, 6-[8-[[4,8-difluoro-2-[(3S)-pyrrolidin-3-yl]-3,5,6,7-tetrahydrocyclopenta[f]benzimidazol-6-yl]methyl]-2-oxo-1-oxa-3,8-diazaspiro[4.5]decan-3-yl]-4H-pyrido[3,2-b][1,4]oxazin-3-one; 2,2,2-trifluoroacetic acid]: the MIC is 0.25 µg/mL. The result for `O=C(O)C(F)(F)F.O=C1COc2ncc(N3CC4(CCN(CC5Cc6c(c(F)c7[nH]c(C8CNCCO8)nc7c6F)C5)CC4)OC3=O)nc2N1` (centres unmarked) [Example 16, 6-[8-[(4,8-difluoro-2-morpholin-2-yl-3,5,6,7-tetrahydrocyclopenta[f]benzimidazol-6-yl)methyl]-2-oxo-1-oxa-3,8-diazaspiro[4.5]decan-3-yl]-4H-pyrazino[2,3-b][1,4]oxazin-3-one; 2,2,2-trifluoroacetic acid] reads 0.25 µg/mL; that for `CN[C@H](C)c1nc2c(F)c3c(c(F)c2[nH]1)CC(CN1CCC2(CC1)CN(c1cnc4c(n1)NC(=O)CO4)C(=O)O2)C3.O=C(O)C(F)(F)F` [Example 17, 6-[8-[[4,8-difluoro-2-[(1R)-1-(methylamino)ethyl]-3,5,6,7-tetrahydrocyclopenta[f]benzimidazol-6-yl]methyl]-2-oxo-1-oxa-3,8-diazaspiro[4.5]decan-3-yl]-4H-pyrazino[2,3-b][1,4]oxazin-3-one; 2,2,2-trifluoroacetic acid], 0.125 µg/mL; that for `O=C(O)C(F)(F)F.O=C1COc2ncc(N3CC4(CCN(CC5Cc6c(c(F)c7[nH]c([C@@H]8COCCN8)nc7c6F)C5)CC4)OC3=O)nc2N1` [Example 18, 6-[8-[[4,8-difluoro-2-[(3R)-morpholin-3-yl]-3,5,6,7-tetrahydrocyclopenta[f]benzimidazol-6-yl]methyl]-2-oxo-1-oxa-3,8-diazaspiro[4.5]decan-3-yl]-4H-pyrazino[2,3-b][1,4]oxazin-3-one; 2,2,2-trifluoroacetic acid], 0.5 µg/mL. With `CNCc1nc2c(F)c3c(c(F)c2[nH]1)CC(CNC1CC2(C1)CN(c1cnc4c(n1)NC(=O)CO4)C(=O)O2)C3` (centres unmarked) [Example 19, 6-[2-[[4,8-difluoro-2-(methylaminomethyl)-3,5,6,7-tetrahydrocyclopenta[f]benzimidazol-6-yl]methylamino]-6-oxo-5-oxa-7-azaspiro[3.4]octan-7-yl]-4H-pyrazino[2,3-b][1,4]oxazin-3-one], the MIC came to 0.5 µg/mL (≈ 0.925 µM). `CNCCc1nc2c(F)c3c(c(F)c2n1C)CC(CN1CCC2(CC1)CN(c1cnc4c(n1)NC(=O)CO4)C(=O)O2)C3.O=C(O)C(F)(F)F` (centres unmarked) [Example 20, 6-[8-[[4,8-difluoro-1-methyl-2-[2-(methylamino)ethyl]-6,7-dihydro-5H-cyclopenta[f]benzimidazol-6-yl]methyl]-2-oxo-1-oxa-3,8-diazaspiro[4.5]decan-3-yl]-4H-pyrazino[2,3-b][1,4]oxain-3-one; 2,2,2-trifluoroacetic acid]: the MIC is 0.25 µg/mL. Take `O=C(O)C(F)(F)F.O=C1COc2ncc(N3CC4(CCN(CC5Cc6c(c(F)c7[nH]c([C@@H]8CCC(=O)N8)nc7c6F)C5)CC4)OC3=O)nc2N1` [Example 21, 6-[8-[[4,8-difluoro-2-[(2S)-5-oxopyrrolidin-2-yl]-3,5,6,7-tetrahydrocyclopenta[f]benzimidazol-6-yl]methyl]-2-oxo-1-oxa-3,8-diazaspiro[4.5]decan-3-yl]-4H-pyrazino[2,3-b][1,4]oxazin-3-one; 2,2,2-trifluoroacetic acid]: the minimal inhibitory concentration (MIC) amounted to 1 µg/mL.

Consider `CNCc1nc2cc3c(c(F)c2o1)CC(CN1CCC2(CC1)CN(c1cnc4c(n1)NC(=O)CO4)C(=O)O2)C3.O=C(O)C(F)(F)F` (centres unmarked) [Example 22, 6-[8-[[8-fluoro-2-(methylaminomethyl)-6,7-dihydro-5H-cyclopenta[f][1,3]benzoxazol-6-yl]methyl]-2-oxo-1-oxa-3,8-diazaspiro[4.5]decan-3-yl]-4H-pyrazino[2,3-b][1,4]oxazin-3-one; 2,2,2-trifluoroacetic acid], for which the MIC was determined as 0.25 µg/mL.
